Test [1] relates to SAMD9. Nature of the test: SAMD9 RNA expression by qRT-PCR in HeLa cells. Format: cell-based, human. The note with it: fold increase in RNA gene expression vs cells treated with vehicle only. On the procedure: HeLa cells were cultured in DMEM 4.5 g/l glucose medium containing 10% FCS, 1% L-glutamine and 1% penicillin and streptomycin (Biological Industries) and grown at 37° C. and 5% CO2.
Of note, when cells were incubated with CaCx and ApDx (NCI, MA USA), they were grown in the appropriate medium with 0.1% FCS only.
RNA was extracted from cell cultures using an RNA extraction kit (Roche Diagnostics, Mahheim, Germany). cDNA was synthesized from 500 ng of total RNA using the Verso cDNA kit (Thermo Fisher Scientific, Waltham, MA, USA). cDNA PCR amplification was carried out using the Fast SYBR Green Master Mix in a StepOnePlus™ Real-Time PCR System (Applied Biosystems, Foster City, CA, USA) with gene-specific intron-crossing oligonucleotide pairs listed in Table 1 (below). For quantification, standard curves were obtained using serially diluted cDNA amplified in the same qRT-PCR run. The melting temperature (Tm) of the amplified products was measured to confirm the specificity of the reaction conditions. Cycling conditions were as follows: 95° C. for 10 minutes, 95° C. for 10 seconds, 62° C. for 15 seconds, and 72° C. for 25 seconds for a total of 40 cycles. Each sample was analyzed in triplicate. mRNA expression level for target gene was normalized to GAPDH. The results are based the amount of target, normalized to an endogenous reference (IACTB) and relative to a calibrator, as calculated by 2-ΔΔCT. All samples were run in triplicate. The expression levels of target genes were expressed as mRNA relative units.
The potential ability of these 31 molecules to induce SAMD9 expression in cell cultures was then scrutinized.
On the technique in general: Real-time PCR tracks product formation cycle by cycle.

The test system of test [2] is SAMD9 promoter. In words: High-throughput luciferase reporter screen in HeLa line stably expressing 585 bp SAMD9 promoter fragment. Format: cell-based, human. The note with it: fold increase in promoter activity by luciferase assay vs cells treated with vehicle only, test drugs 10 μM, 24 hours; for fold induction at 10 µM: Homo sapiens, HeLa, read-out: SAMD9 expression fold change in HeLa reporter assay. On the procedure: HeLa cell lines stably expressing the constructs were generated under neomycin selection. Briefly, pGL4.17 containing a SAMD9 promoter fragment spanning 585 bp upstream to the TSS and an empty pGL4.17 vector were transfected into HeLa cells. Forty eight hours after transfection, standard medium was replaced with medium containing 600 μg/ml G418 (Sigma-Aldrich), cells were kept under G418 selection and the selective medium was replaced approximately every 2-3 days. After two passages, colonies of stable cells were isolated, expanded and frozen for further use.
Test drugs were dispensed at a concentration of 10 μM by a robotic system into 96-well plates containing 9000 cells/well expressing the pGL4.17 reporter construct carrying a 585 bp SAMD9 promoter fragment operably linked to luciferase gene or the empty pGL4.17 luciferase construct (Promega cat. no. E6721). Medium was removed after 24 hours and the cells subjected to Steady-Glo luciferase lysis-substrate solution assay (Promega) as described above. Liquid handling was done with the Tecan (Tecan) Freedom 150 (Robotic & MCA liquid Handling System) and the luciferase reading was done with a robot integrated Tecan Infinite® M1000 reader.
This cell line was then used to robotically screen a total of 1496 compounds obtained from the National Cancer Institute Diversity Set III and Oncology Drugs Set III small molecule libraries.
(In a reporter assay the amount or activity of a reporter protein is the signal.)

Structures can show the parent of a compound that is named as a salt.

For `Cc1cccc(NC(=O)C=Cc2ccc([N+](=O)[O-])cc2)c1` [Compound 139109, N-(3-methylphenyl)-3-(4-nitrophenyl)acrylamide], the “SAMD9 expression fold change in HeLa cells” value in test [1] amounted to 0.72 fold. Further, the fold induction at 10 µM in test [2] is 2.03.

Consider `Cc1cc(Cl)ccc1N1C(=O)C(=O)C(c2nc3ccccc3o2)C(=O)C1=O` [Compound 623051, 4-(1,3-Benzoxazol-2-yl)-1-(4-chloro-2-methylphenyl)-2,3,5,6-piperidinetetrone], for which, in test [1], the “SAMD9 expression fold change in HeLa cells” value is listed as 0.97 fold. In addition, the fold induction at 10 µM in test [2] was found to be 2.74.

In the case of `Nc1ncnc2c1nc(Cl)n2[C@@H]1O[C@@H]2COP(=O)(O)O[C@H]2[C@H]1O` [Compound 284751, Adenosine, 8-chloro-, cyclic 3′,5′-(hydrogen phosphate)], the “SAMD9 expression fold change in HeLa cells” value in test [1] amounted to 0.87 fold. Also, the fold induction at 10 µM in test [2] was determined as 2.14.

Regarding `OC(CN1CCCCC1)c1ccc(/C=C/c2ccc(Cl)cc2)cc1` (stereo not shown) [Compound 26040], the “SAMD9 expression fold change in HeLa cells” value in test [1] came to 1.2 fold. For the same compound, the fold induction at 10 µM in test [2] is 3.38.

`S=C(Nc1nnc(-c2ccccc2)c(-c2ccccc2)n1)N(/N=C/C=C/c1ccccc1)c1ccccc1` [Compound 640637, 3-Phenylacrylaldehyde N′-(5,6-diphenyl-1,2,4-triazin-3-yl)-N-phenylthiosemicarbazone]: in test [1], the “SAMD9 expression fold change in HeLa cells” value was found to be 1.16 fold. The fold induction at 10 µM in test [2] is 2.32.

With `CN(C)c1ccc(/C=C2\Cc3ccccc3C2=O)cc1Br` [Compound 643163, 2-(3-Bromo-4-dimethylaminobenzylidene)-1-indanone], the “SAMD9 expression fold change in HeLa cells” value in test [1] was found to be 0.79 fold. Also, in test [2], the fold induction at 10 µM is 2.64.

As for `O=C(c1nc2ccc(Cl)cc2nc1O)C(O)c1ccc2c(c1)OCO2` (stereo not shown) [Compound 642649, 2-(1,3-Benzodioxol-5-yl)-1-(6-chloro-3-hydroxy-2-quinoxalinyl)-2-hydroxyethanone], in test [1], the “SAMD9 expression fold change in HeLa cells” value was 0.85 fold. For the same compound, the fold induction at 10 µM in test [2] was found to be 2.8.

With `O=C1Oc2ccccc2C(=O)/C1=C1/C=C(c2ccccc2)SS1` [Compound 293927, (3E)-3-(5-phenyl-3H-1,2-dithiol-3-ylidene)-2H-chromene-2,4(3H)-dione], in test [1], the “SAMD9 expression fold change in HeLa cells” value is listed as 1.77 fold. The fold induction at 10 µM in test [2] was determined as 2.82.

Take `CN(C)C(=S)/N=c1\ss/c(=N\C(=S)N(C)C)n1-c1ccc2c(c1)OCO2` [Compound 622589, 3,3′-[4-(1,3-benzodioxol-5-yl)-1,2,4-dithiazolidine-3,5-diylidene]bis[1,1-dimethyl(thiourea)]]: in test [1], the “SAMD9 expression fold change in HeLa cells” value was 1.17 fold. In addition, the fold induction at 10 µM in test [2] is 4.32.

As for `CCN(CC)CCNc1ccc2nc(C)n3c4ccc(OC)cc4c(=O)c1c23.Cl` [Compound 637993, 5-{[2-(diethylamino)ethyl]amino}-8-methoxy-1-methyl-6h-imidazo[4,5,1-de] acridin-6-one hydrochloride (1:1)], in test [1], the “SAMD9 expression fold change in HeLa cells” value is given as 6.34 fold. In test [2], the fold induction at 10 µM was determined as 3.7.

As to `COc1cc2c3c(n(C)c(=O)c2cc1OC)-c1cc2c(cc1C3=O)OCO2` [Compound 314622, 5H-[1,3]Dioxolo[5,6]indeno[1,2-c]isoquinoline-5,12-dione, 2,3-dimethoxy-6-methyl-], the “SAMD9 expression fold change in HeLa cells” value in test [1] stood at 2.51 fold. In addition, the fold induction at 10 µM in test [2] stood at 2.31.

Regarding `COc1c2c(cc3oc(=O)ccc13)OC(C)(C)C=C2` [Compound 35542, Xanthoxylin N], in test [1], the “SAMD9 expression fold change in HeLa cells” value amounted to 4.71 fold. Moreover, in test [2], the fold induction at 10 µM was 4.08.

Take `C[C@@H](CSC(=O)c1ccccc1)C(=O)N1c2ccccc2C[C@@H]1C(=O)O` [Compound 604535, (2R)-1-[(2R)-2-methyl-3-phenylcarbonylsulfanyl-propanoyl]-2,3-dihydroindole-2-carboxylic acid]: in test [1], the “SAMD9 expression fold change in HeLa cells” value was determined as 1.07 fold. Further, the fold induction at 10 µM in test [2] turned out to be 2.26.

For the compound `N#CC(NCc1cccc(CNC(C#N)c2ccccc2)c1)c1ccccc1` (stereo not shown) [Compound 681730, 2,2′-(1,3-phenylenebis (methylene))bis(azanediyl)bis(2-phenylacetonitrile)], the “SAMD9 expression fold change in HeLa cells” value in test [1] was determined as 1.6 fold. The fold induction at 10 µM in test [2] was 2.48.

Take `COc1ccc(/C=C2\CCc3ccccc3C2=O)cc1OC` [Compound 643175, 2-(3,4-Dimethoxybenzylidene)-1-tetralone]: the “SAMD9 expression fold change in HeLa cells” value in test [1] amounted to 0.89 fold. The fold induction at 10 µM in test [2] worked out at 2.47.

Turning to `COc1ccc2c(c1[N+](=O)[O-])CC[C@@H]1[C@@H]2CC[C@]2(C)C(=O)CC[C@@H]12` [Compound 321803, 4-Nitroestrone 3-methyl ether], the “SAMD9 expression fold change in HeLa reporter assay” value in test [2] is 2.71 fold.

For `CN(C)c1ccc2c(SCC(=O)OCC(=O)[C@@]3(O)CC[C@H]4[C@@H]5CCC6=CC(=O)C=C[C@]6(C)[C@H]5C(=O)C[C@@]43C)c3ccc(N(C)C)cc3nc2c1` [Compound 337851, Predorine], the “SAMD9 expression fold change in HeLa cells” value in test [1] was 1.23 fold. The fold induction at 10 µM in test [2] amounted to 2.37.

For `CC[C@@]1(O)C[C@H](OC2CC(N(C)C)C(OC3CC(O)C(CC4CC(O)C(O)C(C)O4)C(C)O3)C(C)O2)c2c(cc3c(c2O)C(=O)c2c(O)ccc(O)c2C3=O)[C@H]1C(=O)OC` (stereo partly shown) [Compound 265211, Rhodirubin E], the “SAMD9 expression fold change in HeLa cells” value in test [1] is given as 1.47 fold. For the same compound, the fold induction at 10 µM in test [2] was 3.36.

Turning to `Cc1c2cnccc2c(C)c2c1c1ccccc1n2CCOC(=O)c1ccccc1` [Compound 163443, 2-(5,11-dimethyl-6H-pyrido [4,3-b]carbazol-6-yl) ethyl benzoate], the “SAMD9 expression fold change in HeLa cells” value in test [1] is given as 6.49 fold. In addition, in test [2], the fold induction at 10 µM worked out at 2.24.

For the compound `COc1ccc(/C(=N\O)C(c2ccc(OC)cc2)C2C(=O)Oc3ccccc32)cc1` (stereo not shown) [Compound 641607, 3-(2-(Hydroxyimino)-1,2-bis(4-methoxyphenyl)ethyl)-1-benzofuran-2(3H)-one], the “SAMD9 expression fold change in HeLa cells” value in test [1] is on record as 1.27 fold. Besides, in test [2], the fold induction at 10 µM was found to be 3.25.

With `CN(CCc1ccccn1)c1ccc2c(c1)C(=O)c1ccccc1-2` [Compound 24048, 2-(methyl(2-(2-pyridinyl)ethyl)amino)-9H-fluoren-9-one], the “SAMD9 expression fold change in HeLa cells” value in test [1] was 1.62 fold. For the same compound, the fold induction at 10 µM in test [2] is 2.84.

On to `NC(Cc1ccc2oc3cc(=O)c4ccccc4c-3nc2c1)C(=O)O` [Compound 672425, 1,2-Benzo-8-(L-alanyl)-3-phenoxazone nitrate salt], for which the “SAMD9 expression fold change in HeLa cells” value in test [1] worked out at 0.98 fold. In test [2], the fold induction at 10 µM is 2.11.

As for `COc1ccc(-c2csc(=[N+]3CCCCC3)s2)cc1` [Compound 302358, Piperidinium, 1-[4-(4-methoxyphenyl)-1,3-dithiol-2-ylidene]-, sulfate (1:1)], the “SAMD9 expression fold change in HeLa cells” value in test [1] was 0.84 fold. Moreover, the fold induction at 10 µM in test [2] was found to be 2.72.

For the compound `O=C1C(O)=C(CC=C(Cl)Cl)C(=O)c2ccccc21` [Compound 126771, Dichlorolawsone], the “SAMD9 expression fold change in HeLa cells” value in test [1] amounted to 3.27 fold. Moreover, the fold induction at 10 µM in test [2] came to 2.23.

As for `CCN1C(=O)/C(=C\Nc2ccccc2)S/C1=N\Nc1ncc(CC(=O)Nc2ccccc2C)s1` [Compound 658350, 2-(2-(2-(5-(Anilinomethylene)-3-ethyl-4-oxo-1,3-thiazolidin-2-ylidene)hydrazino)-1,3-thiazol-5-yl)-N-(2-methylphenyl) acetamide], the “SAMD9 expression fold change in HeLa cells” value in test [1] stood at 1.01 fold. In test [2], the fold induction at 10 µM was 2.03.

For `COc1ccc(/C=C2\Cc3ccccc3C2=O)cc1OC` [Compound 643174, 2-(3,4-Dimethoxybenzylidene)-1-indanone], the “SAMD9 expression fold change in HeLa cells” value in test [1] turned out to be 1.29 fold. In test [2], the fold induction at 10 µM was 2.17.

With `CCN(CC)CCOc1ccccc1/C=C/c1noc2ccccc12` [Compound 601101, 2-(2-(2-(1,2-Benzisoxazol-3-yl)vinyl)phenoxy)-N,N-diethylethanamine hydrochloride], in test [2], the fold induction at 10 µM is 2.13.

Values taken from patent US12023348B2, “EGR1 targeting molecules for the treatment of inflammatory and hyperproliferative conditions” (The Medical Research, Infrastructure and Health Services …, priority 2015, dated 2024).
